Experimental data: patent US20150374673A1, “Combination Therapy for the Treatment of Nosocomial Pneumonia” (priority 2013, published 2015)

Columns and labels:
[1] = tested on: Gram-positive or Gram-negative bacterial strains; assay: MIC in pulmonary surfactant compared with CAMHB alone, whole strain panel; type: cell-based; conditions: up to 10% pulmonary surfactant vs CAMHB alone; any strain tested
Experimental: (§1) The bacterial strains used in this testing were part of the microbiological culture collection housed at AstraZeneca R&D Boston (AstraZeneca Research Collection, designated ARC). The panel of bacterial isolates used for this testing was comprised of five CLSI QC reference strains and the remainder were either recent clinical isolates expressing β-lactamases or isolates from the primary bacterial screening panels.
(§2) MIC values were determined using the CLSI broth microdilution methodology with slight variation. Stock compound mother plates were prepared and used to spot 2 μL aliquots of serial 2-fold drug dilutions to columns 1-11 of 96-well daughter plates using a Perkin-Elmer MiniTrak™ MultiPosition dispenser. […] An inoculum volume of 100 μL (5×10E^5 CFU/mL) in CAMHB containing 0, 1, 2.5, 5, or 10% pulmonary surfactant was added using a multichannel Finnpipette® to each well of the 96-well plate.
The minimum inhibitory concentration (MIC) values against each organism/drug combination were determined using broth microdilution methodology according to CLSI guidelines. The recommended reference bacterial strains for each test group and reference compounds were incorporated into each test. […]
MIC values for individual isolates were read visually. […]

[2] = tested on: E. coli; assay: MIC, CLSI broth microdilution in CAMHB with 0-10% pulmonary surfactant (avibactam fixed at 4 μg/mL in combination); type: cell-based; conditions: Escherichia coli
Experimental: as §1, §2
(§3) The minimum inhibitory concentration (MIC) values against each organism/drug combination were determined using broth microdilution methodology according to CLSI guidelines. The recommended reference bacterial strains for each test group and reference compounds were incorporated into each test. For Gram-negatives, the reference bacterial strains were Escherichia coli ATCC 25922, E. coli ATCC 35218, Klebsiella pneumoniae ATCC 700603, and Pseudomonas aeruginosa ATCC 27853. Staphylococcus aureus ATCC 29213 was the reference bacterial strain for the Gram-positives.
(§4) MIC values for individual isolates were read visually. The MICs for each compound or combination in pulmonary surfactant was compared to the compound or combination tested in CAMHB alone.

[3] = tested on: K. pneumoniae; assay: as above; type: cell-based; conditions: Klebsiella pneumoniae
Experimental: as §1, §2, §3, §4

[4] = Protein binding, equilibrium dialysis chamber, LC-MS/MS; type: in vitro ADME
Experimental: Blood was separated from plasma using a cooled centrifuge. Samples were split and stored at −80° C.

[5] = tested on: S. aureus; assay: MIC, CLSI broth microdilution in CAMHB with 0-10% pulmonary surfactant (avibactam fixed at 4 μg/mL in combination); type: cell-based, Staphylococcus aureus
Experimental: as §1, §2, §3, §4

## CC(C)(O/N=C(\C(=O)N[C@@H]1C(=O)N2C(C(=O)[O-])=C(C[n+]3ccccc3)CS[C@H]12)c1csc(N)n1)C(=O)O [ceftazidime, (6R,7R)-7-[[(2Z)-2-(2-amino-1,3-thiazol-4-yl)-2-(1-hydroxy-2-methyl-1-oxopropan-2-yl)oxyiminoacetyl]amino]-8-oxo-3-(pyridin-1-ium-1-ylmethyl)-5-thia-1-azabicyclo[4.2.0]oct-2-ene-2-carboxylate pentahydrate]
[1]
  MIC increase in pulmonary surfactant: no MIC increases were observed
[2]; ATCC25922, E. coli ARC4 (CLSI QC strain, ATCC 25922), surfactant 0%
  MIC: 0.25 µg/mL
[2]; ATCC25922, E. coli ARC4 (CLSI QC strain, ATCC 25922), surfactant 1%
  MIC: 0.25 µg/mL
[2]; ATCC25922, E. coli ARC4 (CLSI QC strain, ATCC 25922), surfactant 2.5%
  MIC: 0.25 µg/mL
[2]; ATCC25922, E. coli ARC4 (CLSI QC strain, ATCC 25922), surfactant 5%
  MIC: 0.25 µg/mL
[2]; ATCC25922, E. coli ARC4 (CLSI QC strain, ATCC 25922), surfactant 10%
  MIC: 0.25 µg/mL
[2]; ATCC35218, E. coli ARC016 (ATCC 35218, TEM-1), surfactant 0%
  MIC: 0.12 µg/mL
[2]; ATCC35218, E. coli ARC016 (ATCC 35218, TEM-1), surfactant 1%
  MIC: 0.12 µg/mL
[2]; ATCC35218, E. coli ARC016 (ATCC 35218, TEM-1), surfactant 2.5%
  MIC: 0.12 µg/mL
[2]; ATCC35218, E. coli ARC016 (ATCC 35218, TEM-1), surfactant 5%
  MIC: 0.12 µg/mL
[2]; ATCC35218, E. coli ARC016 (ATCC 35218, TEM-1), surfactant 10%
  MIC: 0.12 µg/mL
[2]; E. coli ARC523 (W3110), surfactant 0%
  MIC: 0.5 µg/mL
[2]; E. coli ARC523 (W3110), surfactant 1%
  MIC: 0.5 µg/mL
[2]; E. coli ARC523 (W3110), surfactant 2.5%
  MIC: 0.25 µg/mL
[2]; E. coli ARC523 (W3110), surfactant 5%
  MIC: 0.5 µg/mL
[2]; E. coli ARC523 (W3110), surfactant 10%
  MIC: 0.5 µg/mL
[2]; E. coli ARC3666 (CTX-M-15, OXA-1/30, SHV-31, TEM-1), surfactant 0%
  MIC: 32 µg/mL
[2]; E. coli ARC3666 (CTX-M-15, OXA-1/30, SHV-31, TEM-1), surfactant 1%
  MIC: 32 µg/mL
[2]; E. coli ARC3666 (CTX-M-15, OXA-1/30, SHV-31, TEM-1), surfactant 2.5%
  MIC: 32 µg/mL
[2]; E. coli ARC3666 (CTX-M-15, OXA-1/30, SHV-31, TEM-1), surfactant 5%
  MIC: 32 µg/mL
[2]; E. coli ARC3666 (CTX-M-15, OXA-1/30, SHV-31, TEM-1), surfactant 10%
  MIC: 32 µg/mL
[2]; E. coli ARC3690 (CTX-M-15, SHV-12), surfactant 0%
  MIC: 64 µg/mL
[2]; E. coli ARC3690 (CTX-M-15, SHV-12), surfactant 1%
  MIC: 64 µg/mL
[2]; E. coli ARC3690 (CTX-M-15, SHV-12), surfactant 2.5%
  MIC: 64 µg/mL
[2]; E. coli ARC3690 (CTX-M-15, SHV-12), surfactant 5%
  MIC: 64 µg/mL
[2]; E. coli ARC3690 (CTX-M-15, SHV-12), surfactant 10%
  MIC: 64 µg/mL
[3]; ATCC700603, K. pneumoniae ARC561 (ATCC 700603; SHV-18, OXA-2, OKP-6), surfactant 0%
  MIC: 32 µg/mL
[3]; ATCC700603, K. pneumoniae ARC561 (ATCC 700603; SHV-18, OXA-2, OKP-6), surfactant 1%
  MIC: 32 µg/mL
[3]; ATCC700603, K. pneumoniae ARC561 (ATCC 700603; SHV-18, OXA-2, OKP-6), surfactant 2.5%
  MIC: 32 µg/mL
[3]; ATCC700603, K. pneumoniae ARC561 (ATCC 700603; SHV-18, OXA-2, OKP-6), surfactant 5%
  MIC: 32 µg/mL
[3]; ATCC700603, K. pneumoniae ARC561 (ATCC 700603; SHV-18, OXA-2, OKP-6), surfactant 10%
  MIC: 32 µg/mL
[3]; K. pneumoniae ARC1865 (Primary Screening Panel), surfactant 1%
  MIC: 0.25 µg/mL
[3]; K. pneumoniae ARC1865 (Primary Screening Panel), surfactant 2.5%
  MIC: 0.5 µg/mL
[3]; K. pneumoniae ARC1865 (Primary Screening Panel), surfactant 5%
  MIC: 0.5 µg/mL
[3]; K. pneumoniae ARC1865 (Primary Screening Panel), surfactant 10%
  MIC: 0.5 µg/mL
[3]; K. pneumoniae ARC1865 (Primary Screening Panel), surfactant concentration cell empty
  MIC: 0.5 µg/mL
[3]; K. pneumoniae ARC2528 (Clinical isolate), surfactant 0%
  MIC: 1 µg/mL
[3]; K. pneumoniae ARC2528 (Clinical isolate), surfactant 1%
  MIC: 2 µg/mL
[3]; K. pneumoniae ARC2528 (Clinical isolate), surfactant 2.5%
  MIC: 1 µg/mL
[3]; K. pneumoniae ARC2528 (Clinical isolate), surfactant 5%
  MIC: 1 µg/mL
[3]; K. pneumoniae ARC2528 (Clinical isolate), surfactant 10%
  MIC: 1 µg/mL
[3]; K. pneumoniae ARC2929 (KPC-3), surfactant 0%
  MIC: > 64 µg/mL
[3]; K. pneumoniae ARC2929 (KPC-3), surfactant 1%
  MIC: > 64 µg/mL
[3]; K. pneumoniae ARC2929 (KPC-3), surfactant 2.5%
  MIC: > 64 µg/mL
[3]; K. pneumoniae ARC2929 (KPC-3), surfactant 5%
  MIC: > 64 µg/mL
[3]; K. pneumoniae ARC2929 (KPC-3), surfactant 10%
  MIC: > 64 µg/mL
[3]; K. pneumoniae ARC2945 (KPC-2, SHV-11, TEM-1, OXA-9), surfactant 0%
  MIC: 64 µg/mL
[3]; K. pneumoniae ARC2945 (KPC-2, SHV-11, TEM-1, OXA-9), surfactant 1%
  MIC: 64 µg/mL
[3]; K. pneumoniae ARC2945 (KPC-2, SHV-11, TEM-1, OXA-9), surfactant 2.5%
  MIC: 64 µg/mL
[3]; K. pneumoniae ARC2945 (KPC-2, SHV-11, TEM-1, OXA-9), surfactant 5%
  MIC: 64 µg/mL
[3]; K. pneumoniae ARC2945 (KPC-2, SHV-11, TEM-1, OXA-9), surfactant 10%
  MIC: 64 µg/mL
[3]; K. pneumoniae ARC3713 (CTX-M-15, OXA-1/30, SHV-5, TEM-1), surfactant 0%
  MIC: > 64 µg/mL
[3]; K. pneumoniae ARC3713 (CTX-M-15, OXA-1/30, SHV-5, TEM-1), surfactant 1%
  MIC: > 64 µg/mL
[3]; K. pneumoniae ARC3713 (CTX-M-15, OXA-1/30, SHV-5, TEM-1), surfactant 2.5%
  MIC: > 64 µg/mL
[3]; K. pneumoniae ARC3713 (CTX-M-15, OXA-1/30, SHV-5, TEM-1), surfactant 5%
  MIC: > 64 µg/mL
[3]; K. pneumoniae ARC3713 (CTX-M-15, OXA-1/30, SHV-5, TEM-1), surfactant 10%
  MIC: > 64 µg/mL
[4]
  fraction unbound: 0.9
[5]; S. aureus ARC12 (CLSI QC strain, ATCC 29213), surfactant 0%
  MIC: 8 µg/mL
[5]; S. aureus ARC12 (CLSI QC strain, ATCC 29213), surfactant 1%
  MIC: 16 µg/mL
[5]; S. aureus ARC12 (CLSI QC strain, ATCC 29213), surfactant 2.5%
  MIC: 16 µg/mL
[5]; S. aureus ARC12 (CLSI QC strain, ATCC 29213), surfactant 5%
  MIC: 8 µg/mL
[5]; S. aureus ARC12 (CLSI QC strain, ATCC 29213), surfactant 10%
  MIC: 8 µg/mL
[5]; S. aureus ARC516 (MRSA, quinolone-resistant), surfactant 0%
  MIC: >64 µg/mL
[5]; S. aureus ARC516 (MRSA, quinolone-resistant), surfactant 1%
  MIC: >64 µg/mL
[5]; S. aureus ARC516 (MRSA, quinolone-resistant), surfactant 2.5%
  MIC: >64 µg/mL
[5]; S. aureus ARC516 (MRSA, quinolone-resistant), surfactant 5%
  MIC: >64 µg/mL
[5]; S. aureus ARC516 (MRSA, quinolone-resistant), surfactant 10%
  MIC: >64 µg/mL
